# Measured values published in patent US11633379B2, “Methods of inhibiting PCSK9” (TRUSTEES OF DARTMOUTH COLLEGE, priority 2017, dated 2023).
# Read-outs that look alike come from different tables or passages of the source.
# Columns and labels:
# PCSK9 = assay: Plasma PCSK9 levels in mice (ELISA); type: in vivo
# Procedure: 1) Single-dose experiments: mice were administered (oral gavage or intra-peritoneal injection) with 200 μl of 34 (30 mg/kg or 100 mg/kg) in 0.1% Tween 80+1% hydroxyethyl cellulose (HEC) in buffered (PBS pH7.4) solution. After 34 administration, 50-70 μl of blood was collected from the retro-orbital plexus every 4-6 hours (for a total of 24 hours). Blood was left to clot at room temperature for 20 min, followed by serum separation (spin at 1000 g for 10 min). Serum was analyzed as specified in the “Serum analyses” section.
# 2) Daily dosage experiments: mice were administered daily oral gavage with 200 μl of 34 (100 mg/kg) in 0.1% Tween80+1% hydroxyethyl cellulose (HEC) in buffered (PBS pH7.4) solution. 50-70 μl of blood was collected from the retro-orbital plexus on day 3 and day 5 after 34 administration, on day 5 mice were euthanized and liver were collected and analyzed as mentioned below under the “Liver analyses” section. Blood was left to clot at room temperature for 20 min, followed by serum separation (spin at 1000 g for 10 min). Serum was analyzed as described below:
# PCSK9 levels—using commercially available ELISA kit (MBL-international, catalog # CY-8079) following the manufacturer instruction.
# LDLR = assay: Hepatic LDLR levels in mice (western blot); type: in vivo; details: livers on day 5 after daily oral 100 mg/kg/day, FIG. 14B
# Procedure: 2) Daily dosage experiments: mice were administered daily oral gavage with 200 μl of 34 (100 mg/kg) in 0.1% Tween80+1% hydroxyethyl cellulose (HEC) in buffered (PBS pH7.4) solution. 50-70 μl of blood was collected from the retro-orbital plexus on day 3 and day 5 after 34 administration, on day 5 mice were euthanized and liver were collected and analyzed as mentioned below under the “Liver analyses” section. Blood was left to clot at room temperature for 20 min, followed by serum separation (spin at 1000 g for 10 min). Serum was analyzed as described below: Hepatic LDLR levels—To study whether 34 affect hepatic LDLR levels we used 10 mg of PBS-flushed livers. Livers were minced and proteins were extracted using available RIPA buffer (SIGMA-ALDRICH, catalog #20-188). Protein extracts (5 μgr) were used for immunodetection of intracellular LDLR (western blot analysis) with a commercially available primary antibody against LDLR (ABCAM, catalog #14056), HRP-conjugated secondary antibody (ABCAM, catalog #97135) visualized using an enhanced chemiluminescence (ECL) solution (Cumaric acid, Luminol and hydrogen peroxide), developed in a LiCore imager.
# apoE [1] = assay: Intracellular apoE, HepG2 (western blot); type: cell-based, human; details: 40 hours of incubation, HepG2, FIG. 7C
# Excerpt: […] […] Protein extracts (25 μgr) were used for immunodetection of intracellular […] (western blot analysis) with a commercially available primary antibody against apoE (ABCAM, catalog #1906), HRP-conjugated secondary antibody (SIGMA-ALDRIC, catalog # A5420) visualized using an enhanced chemiluminescence (ECL) solution (Cumaric acid, Luminol and hydrogen peroxide), developed in a LiCore imager.
# albumin = assay: Albumin secretion, HepG2 (ELISA); type: cell-based, human
# Procedure: The collected media was analyzed for albumin levels using commercially available ELISA kit (ABCAM, catalog #108788) following the manufacturer instruction.
# recombinant PCSK9 = recombinant PCSK9 (Homo sapiens, UniProt Q8NBP7); assay: PCSK9 detection interference (ELISA); details: FIG. 5A
# Procedure: To study whether 34 directly interfere with PCSK9 detection we used recombinant PCSK9 (30 ng/ml) was mixed with increasing concentration (0.2-50 μM) of 34 in 0.1% DMSO followed by detection of PCSK9 using commercially available ELISA kit (MBL-international, catalog # CY-8079) following the manufacturer instruction.
# apoE mRNA = assay: apoE transcription, HepG2 (real-time PCR); type: cell-based, human; details: HepG2, FIG. 7B
# Excerpt: , cells were washed with HBSS followed by RNA extraction kit (RNeasy, QIAGEN cat #74-104). mRNA was reversed transcribed to cDNA using commercially available kit (ThermoFisher, cat #4368814) and analyzed using real-time PCR for apoE transcript levels using the relative expression method known as delta-delta CT.
# AST = test system: AST; set-up: species or system mice; details: mouse, in vivo, po
# Procedure: 1) Single-dose experiments: mice were administered (oral gavage or intra-peritoneal injection) with 200 μl of 34 (30 mg/kg or 100 mg/kg) in 0.1% Tween 80+1% hydroxyethyl cellulose (HEC) in buffered (PBS pH7.4) solution. After 34 administration, 50-70 μl of blood was collected from the retro-orbital plexus every 4-6 hours (for a total of 24 hours). Blood was left to clot at room temperature for 20 min, followed by serum separation (spin at 1000 g for 10 min). Serum was analyzed as specified in the “Serum analyses” section. 2) Daily dosage experiments: mice were administered daily oral gavage with 200 μl of 34 (100 mg/kg) in 0.1% Tween80+1% hydroxyethyl cellulose (HEC) in buffered (PBS pH7.4) solution. 50-70 μl of blood was collected from the retro-orbital plexus on day 3 and day 5 after 34 administration, on day 5 mice were euthanized and liver were collected and analyzed as mentioned below under the “Liver analyses” section. Blood was left to clot at room temperature for 20 min, followed by serum separation (spin at 1000 g for 10 min). Serum was analyzed as described below: AST activity—using commercially available activity assay (SIGMA-ALDRICH, catalog # MAK055) following the manufacturer instruction.
# [2] = molecular target: T1, PCSK9 binding to LDLR (EGF-A domain) (Homo sapiens, UniProt Q8NBP7); assay: PCSK9-LDLR interaction ELISA; details: FIG. 5B
# T1 construct: purchased MBL-international CY-8150
# Procedure: To study whether increasing concentrations of 34 (0.2-50 μM) directly interfere with PCSK9-LDLR interaction we used a commercially available ELISA kit (MBL-international, catalog # CY-8150) following the manufacturer instruction.
# apoE [3] = assay: apoE secretion, HepG2 (ELISA); type: cell-based, human; details: HepG2, FIG. 7A
# Procedure: The collected media was analyzed for apoE levels using commercially available ELISA kit (ABCAM, catalog #108813) following the manufacturer instruction.
# T1 sequence (Q8NBP7 153-692): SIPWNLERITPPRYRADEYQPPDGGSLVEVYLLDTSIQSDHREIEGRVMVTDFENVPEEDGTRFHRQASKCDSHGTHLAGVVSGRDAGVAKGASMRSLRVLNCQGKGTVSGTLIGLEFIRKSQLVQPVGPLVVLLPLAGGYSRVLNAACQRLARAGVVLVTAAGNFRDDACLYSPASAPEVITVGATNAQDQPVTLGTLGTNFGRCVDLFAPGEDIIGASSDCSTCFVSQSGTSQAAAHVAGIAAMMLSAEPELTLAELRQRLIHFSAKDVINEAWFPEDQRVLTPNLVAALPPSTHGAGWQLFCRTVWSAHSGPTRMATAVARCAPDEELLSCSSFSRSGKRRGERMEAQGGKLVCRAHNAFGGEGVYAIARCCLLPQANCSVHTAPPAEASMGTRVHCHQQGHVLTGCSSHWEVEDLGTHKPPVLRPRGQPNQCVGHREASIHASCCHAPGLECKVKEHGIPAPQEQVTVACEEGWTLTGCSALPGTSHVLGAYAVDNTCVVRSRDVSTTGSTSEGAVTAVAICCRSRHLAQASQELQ
# T1 sequence (Q8NBP7 31-152 partner limits assumed): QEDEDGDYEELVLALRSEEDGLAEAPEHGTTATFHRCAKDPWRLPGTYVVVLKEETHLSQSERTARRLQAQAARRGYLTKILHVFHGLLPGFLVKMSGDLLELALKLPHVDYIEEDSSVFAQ
# Chain of recombinant PCSK9 (Q8NBP7 153-692): as the sequence (Q8NBP7 153-692) above
smiles,measurement,setting,value
CC(=O)Oc1ccc(C2CC3(CCCCC3)c3c2[nH]c2ccccc32)cc1 (stereo not shown) [Compound 34],individual mice with a drop in PCSK9 levels,"PCSK9; 5-day oral 100 mg/kg/day, FIG. 12B",all mice receiving compound 34 presented with a drop in PCSK9 levels
same,drop in plasma PCSK9,"PCSK9; 5-day oral 100 mg/kg/day, day 5, FIG. 12A",36.2%
same,maximal drop in plasma PCSK9,"PCSK9; single 30 mg/kg intraperitoneal (IP) injection, 4 hours after administration, FIG. 9",43.2%
same,maximal drop in plasma PCSK9,"PCSK9; single 30 mg/kg oral gavage, 4 hours after administration, FIG. 9",22.5%
same,time after administration at which PCSK9 levels are back to baseline,"PCSK9; single 30 mg/kg, IP or oral, FIG. 9",20 h
same,maximal drop in plasma PCSK9,"PCSK9; single oral 30 mg/kg, 6 hours after administration, FIG. 10A",28.5%
same,time after administration at which PCSK9 levels are back to baseline,"PCSK9; single oral 30 mg/kg, FIG. 10A",18 h
same,maximal drop in plasma PCSK9,"PCSK9; single oral 100 mg/kg, 6 hours after administration, FIG. 10B",33.4%
same,time after administration at which PCSK9 levels are back to baseline,"PCSK9; single oral 100 mg/kg, FIG. 10B",24 h
same,increase in hepatic LDLR,LDLR,16.2%
same,intracellular apoE levels,apoE [1],"no changes in secreted, intracellular, or mRNA levels of apoE"
same,secreted albumin,"albumin; 20 μM and 50 μM, HepG2, result of increased cell death",Reduction in secreted and intracellular albumin
same,secreted albumin,"albumin; up to 10 μM, 40 hours of incubation, HepG2, FIG. 6A",no changes in secreted or intracellular albumin
same,interference with PCSK9 detection,recombinant PCSK9,does not interfere with PCSK9 detection
same,apoE mRNA levels,apoE mRNA,"no changes in secreted, intracellular, or mRNA levels of apoE"
same,liver function (measured as AST activity),AST; 100 mg/kg,not affected
same,liver function (measured as AST activity),AST; 100 mg/kg/day,not affected
same,PCSK9 binding to LDLR (EGF-A domain),[2],does not affect PCSK9 binding to LDLR (EGF-A domain)
same,secreted apoE levels,apoE [3],"no changes in secreted, intracellular, or mRNA levels of apoE"
